# Source: patent US20260209152A1, “Substituted Hydroxystilbene Compounds and Derivatives, Synthesis and Uses Thereof” (Kynan Duke IP, LLC, priority 2019, published 2026)
# Read-outs that look alike come from different tables or passages of the source.
# Assays:
# Pancreatic CAPAN-1 = test: CellTiter Glo cell viability assay; format: cell-based; conditions: Homo sapiens; Capan-1/HTB-79; 11 dilutions 3-0.00001 μM
# GBM patient sample BNB18 = test: Ex vivo GBM 3D spheroid drug response (CellTiter-Glo 3D); format: cell-based, human; conditions: 3D spheroids, 4 days post drug treatment
# Description: (§1) This project involves an ex vivo drug response screen for 3 ROKiT Pharma test agents and Temozolomide in 3 previously dissociated and cryopreserved GBM samples.
# (§2) • 2.1 Three previously processed GBM patient samples were chosen to be used in this study.
# GBM patient sample BNA99 = test: as above; format: cell-based, human; conditions: 3D spheroids, 4 days post drug treatment
# Description: as §1, §2
# Liver SNU-423 = test: CellTiter Glo cell viability assay; format: cell-based, human; conditions: Homo sapiens
# Method in brief: (§3)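 Cells seeded at 1.7*10^3/well in quadruplicate; compounds at 18 two-fold dilutions from 5 μM (0.000038146-5 μM), or at 1, 2, 5, 10 and 20 μM. CellTiter Glo luminescence read on days 1, 3 and 5 after treatment. IC50 by nonlinear regression of luminescence versus log dose.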
# Osteosarcomas SAOS-2 = test: CellTiter Glo cell viability assay; format: cell-based, human; conditions: Homo sapiens
# Method in brief: as §3
# Bladder UMUC_3 = test: CellTiter Glo cell viability assay; format: cell-based, human; conditions: Homo sapiens
# Method in brief: as §3
# Kidney Caki-2 = test: CellTiter Glo cell viability assay; format: cell-based, human; conditions: Homo sapiens
# Method in brief: as §3
# Bladder SCABER = test: CellTiter Glo cell viability assay; format: cell-based, human; conditions: Homo sapiens
# Method in brief: as §3
# Kidney Caki-1 = test: CellTiter Glo cell viability assay; format: cell-based, human; conditions: Homo sapiens
# Method in brief: as §3
# Tongue CAL 27 = test: CellTiter Glo cell viability assay; format: cell-based, human; conditions: Homo sapiens
# Method in brief: as §3
# Bladder T24 = test: CellTiter Glo cell viability assay; format: cell-based, human; conditions: Homo sapiens
# Method in brief: as §3
# Liver HepG2 = test: CellTiter Glo cell viability assay; format: cell-based, human; conditions: Homo sapiens
# Method in brief: as §3
# Lung NCI-H2126 = test: CellTiter Glo cell viability assay; format: cell-based, human; conditions: Homo sapiens
# Method in brief: as §3
# Bladder HT-1197 = test: CellTiter Glo cell viability assay; format: cell-based, human; conditions: Homo sapiens
# Method in brief: as §3
# Lung NCI-H1573 = test: CellTiter Glo cell viability assay; format: cell-based, human; conditions: Homo sapiens
# Method in brief: as §3
# Pancreatic BxPC3 = test: CellTiter Glo cell viability assay; format: cell-based, human; conditions: Homo sapiens
# Method in brief: as §3
# Liver SNU-398 = test: CellTiter Glo cell viability assay; format: cell-based, human; conditions: Homo sapiens
# Method in brief: as §3
# Tongue UPCI: SCC090 = test: CellTiter Glo cell viability assay; format: cell-based, human; conditions: Homo sapiens
# Method in brief: as §3
# Rhabomyosarcoma TE 159.T = test: CellTiter Glo cell viability assay; format: cell-based, human; conditions: Homo sapiens
# Method in brief: as §3
# Pancreatic HPAFII = test: CellTiter Glo cell viability assay; format: cell-based, human; conditions: Homo sapiens
# Method in brief: as §3
# [1] = SNU-423/CRL-2238, 11 dilutions 3-0.00001 μM, read-out: IC50
# [2] = Saos-2/HTB-85, 11 dilutions 3-0.00001 μM, read-out: IC50
# [3] = UMUC3, UM-UC-3/CRL-1749, 11 dilutions 3-0.00001 μM, read-out: IC50
# [4] = Caki-2/HTB-47, 11 dilutions 3-0.00001 μM, read-out: IC50
# [5] = SCaBER/HTB-3, 11 dilutions 3-0.00001 μM, read-out: IC50
# [6] = Caki-1/HTB-46, 11 dilutions 3-0.00001 μM, read-out: IC50
# [7] = CAL 27/CRL-2095, 11 dilutions 3-0.00001 μM, read-out: IC50
# [8] = 72 h, 3 Days of treatment, 18 2-fold dilutions 5-0.00003 μM, read-out: Average IC50
# [9] = T24/HTB-4, 11 dilutions 3-0.00001 μM, read-out: IC50
# [10] = HepG2, Hep G2/HB-8065, 11 dilutions 3-0.00001 μM, read-out: IC50
# [11] = NCI-H2126/CCL-256, 11 dilutions 3-0.00001 μM, read-out: IC50
# [12] = HT1197, HT-1197/CRL-1473, 11 dilutions 3-0.00001 μM, read-out: IC50
# [13] = NCI-H1573/CRL-5877, 11 dilutions 3-0.00001 μM, read-out: IC50
# [14] = BxPC-3/CRL-1687, 11 dilutions 3-0.00001 μM, read-out: IC50
# [15] = SNU-398/CRL-2233, 11 dilutions 3-0.00001 μM, read-out: IC50
# [16] = UPCI: SCC090/CRL-3239, 11 dilutions 3-0.00001 μM, read-out: IC50
# [17] = HPAF-II/CRL-1997, 11 dilutions 3-0.00001 μM, read-out: IC50
SMILES,IC50 (Pancreatic CAPAN-1),"IC50 (GBM patient sample BNB18; Homo sapiens, 96 h)","IC50 (GBM patient sample BNA99; Homo sapiens, 96 h)",IC50 (Liver SNU-423; [1]),IC50 (Osteosarcomas SAOS-2; [2]),IC50 (Bladder UMUC_3; [3]),IC50 (Kidney Caki-2; [4]),IC50 (Bladder SCABER; [5]),IC50 (Kidney Caki-1; [6]),IC50 (Tongue CAL 27; [7]),IC50 (Bladder T24; [9]),IC50 (Liver HepG2; [10]),IC50 (Lung NCI-H2126; [11]),IC50 (Bladder HT-1197; [12]),IC50 (Lung NCI-H1573; [13]),IC50 (Pancreatic BxPC3; [14]),IC50 (Liver SNU-398; [15]),IC50 (Tongue UPCI: SCC090; [16]),IC50 (Pancreatic HPAFII; [17]),other results
"COc1cc(/C=C/c2cc(O)cc(OC)c2CC=C(C)C)ccc1O [Compound 1, (E)-3-(4-hydroxy-3-methoxystyryl)-5-methoxy-4-(3-methylbut-2-en-1-yl)phenol]",2670 nM,1330 nM,15000 nM,203 nM,173 nM,333 nM,426 nM,65 nM,120 nM,89.4 nM,182 nM,577 nM,106 nM,108 nM,273 nM,944 nM,208 nM,0.9 nM,417 nM,"IC50 (Liver SNU-423; SNU-423, 72 h, 3 Days of treatment, 18 2-fold dilutions 5-0.00003 μM, read-out: Average IC50): 33.8 nM; IC50 (Osteosarcomas SAOS-2; SAOS-2, 72 h, 3 Days of treatment, 18 2-fold dilutions 5-0.00003 μM, read-out: Average IC50): 110 nM; IC50 (Bladder UMUC_3; UMUC3, 72 h, 3 Days of treatment, 18 2-fold dilutions 5-0.00003 μM, read-out: Average IC50): 31.3 nM; IC50 (Kidney Caki-2; CAKI-2, 72 h, 3 Days of treatment, 18 2-fold dilutions 5-0.00003 μM, read-out: Average IC50): 1120 nM; IC50 (Bladder SCABER; SCaBER, 72 h, 3 Days of treatment, 18 2-fold dilutions 5-0.00003 μM, read-out: Average IC50): 33.7 nM; IC50 (Kidney Caki-1; CAKI-1, 72 h, 3 Days of treatment, 18 2-fold dilutions 5-0.00003 μM, read-out: Average IC50): 103 nM; IC50 (Tongue CAL 27; CAL-27, 72 h, 3 Days of treatment, 18 2-fold dilutions 5-0.00003 μM, read-out: Average IC50): 56.8 nM; IC50 (Bladder T24; [8]): 129 nM; IC50 (Liver HepG2; HepG2, 72 h, 3 Days of treatment, 18 2-fold dilutions 5-0.00003 μM, read-out: Average IC50): 212 nM; IC50 (Lung NCI-H2126; NCI-H2126, 72 h, 3 Days of treatment, 18 2-fold dilutions 5-0.00003 μM, read-out: Average IC50): 75.4 nM; IC50 (Bladder HT-1197; HT1197, 72 h, 3 Days of treatment, 18 2-fold dilutions 5-0.00003 μM, read-out: Average IC50): 258 nM; IC50 (Lung NCI-H1573; NCI-H1573, 72 h, 3 Days of treatment, 18 2-fold dilutions 5-0.00003 μM, read-out: Average IC50): 217 nM; IC50 (Pancreatic BxPC3; BXPC-3, 72 h, 3 Days of treatment, 18 2-fold dilutions 5-0.00003 μM, read-out: Average IC50): 1060 nM; IC50 (Liver SNU-398; SNU-398, 72 h, 3 Days of treatment, 18 2-fold dilutions 5-0.00003 μM, read-out: Average IC50): 42.9 nM; IC50 (Tongue UPCI: SCC090; [8]): 90.1 nM; IC50 (Rhabomyosarcoma TE 159.T; [8]): 147 nM; IC50 (Pancreatic HPAFII; HPAF-II, 72 h, 3 Days of treatment, 18 2-fold dilutions 5-0.00003 μM, read-out: Average IC50): 1070 nM"
"COc1cc(/C=C/c2cc(O)cc(OC)c2CC=C(C)C)ccc1NC=O [Compound 27, (E)-N-(4-(5-hydroxy-3-methoxy-2-(3-methylbut-2-en-1-yl)styryl)-2-methoxyphenyl)formamide]",792 nM,630 nM,8860 nM,53.5 nM,42.4 nM,30.2 nM,1550 nM,10.9 nM,15.4 nM,15 nM,32.5 nM,251 nM,31 nM,17.1 nM,48 nM,302 nM,54 nM,20 nM,102 nM,"IC50 (GBM patient sample BNB18): 634 nM; IC50 (GBM patient sample BNA99): 8870 nM; IC50 (Rhabomyosarcoma TE 159.T; TE 159.T/CRL-7752, 11 dilutions 3-0.00001 μM, read-out: IC50): 31 nM"
